Measurements from the supplement of paper PMC11208160.

Test: recombinant barcode read abundance after kanamycin selection (control-corrected) (log10(CPM+1)); higher = more efficient recombination; sequences stand for … in AGTGCAGAGAAAATCGGCCAGTTTTCTCTGCCTGCAGTCCGCATGCCGT…ATTTATGCAGCGGACTGCCTTTCTCCCAAAGTGATAAACCGGACAGTATCATGGACCGGTTTTCCCGGTAATCCGTATTTGCAAGGTTGGTTTCACT; site = the 11-nt target
Method: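 Same pooled E. coli target screen (IS621 bridge recombinase, kanamycin selection, control-corrected CPM, mean of 2 biological replicates). Here the two core-binding nucleotides of the LTG and RTG of the bridge RNA target-binding loop are mutated. Target and donor CT cores are held constant, and the other 9 guide positions match the target. The target is read from the library oligo sequence. Molecule = full bridge RNA written as DNA: nt 1-80 from the library oligo, rest WT scaffold.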

Sequence | recombinant barcode read abundance (log10)
TCGCGACCTTGGGTTCTAACCTGTTGCCGTC [TCGCGACCTCG_LTGcore_CT_RTGcore_GA] (site TCGCGACCTCG) (LTG core: CT, RTG core: GA) | 0.204
GAGCCCATCTGGGTTCTAACCTGTTGCCTGA [GAGCCCACTAG_LTGcore_TC_RTGcore_TC] (site GAGCCCACTAG) (LTG core: TC, RTG core: TC) | 0.0397
AGGAGGTCTTGGGTTCTAACCTGTTGCCTTA [AGGAGGTCTAG_LTGcore_CT_RTGcore_TA] (site AGGAGGTCTAG) (LTG core: CT, RTG core: TA) | 0.446
AGGCGGGAATGGGTTCTAACCTGTTGCGGAG [AGGCGGGCTCC_LTGcore_AA_RTGcore_CT] (site AGGCGGGCTCC) (LTG core: AA, RTG core: CT) | 0.668
TAAGAATCGTGGGTTCTAACCTGTTGCCTAG [TAAGAATCTAG_LTGcore_CG_RTGcore_CT] (site TAAGAATCTAG) (LTG core: CG, RTG core: CT) | 0.349
TCTACCCAATGGGTTCTAACCTGTTGCTGTT [TCTACCCCTCA_LTGcore_AA_RTGcore_AA] (site TCTACCCCTCA) (LTG core: AA, RTG core: AA) | 0.186
GGGCGGACTTGGGTTCTAACCTGTTGCGGCA [GGGCGGACTCC_LTGcore_CT_RTGcore_TG] (site GGGCGGACTCC) (LTG core: CT, RTG core: TG) | 0.146
GGGCGTGCTTGGGTTCTAACCTGTTGCCTTT [GGGCGTGCTAG_LTGcore_CT_RTGcore_AA] (site GGGCGTGCTAG) (LTG core: CT, RTG core: AA) | 0.509
TAGAGGGGGTGGGTTCTAACCTGTTGCGGCC [TAGAGGGCTCC_LTGcore_GG_RTGcore_GG] (site TAGAGGGCTCC) (LTG core: GG, RTG core: GG) | 0.114
GCGCGACTCTGGGTTCTAACCTGTTGCTTGA [GCGCGACCTAA_LTGcore_TC_RTGcore_TC] (site GCGCGACCTAA) (LTG core: TC, RTG core: TC) | 0.228
GAGGCCTCTTGGGTTCTAACCTGTTGCCAGC [GAGGCCTCTTG_LTGcore_CT_RTGcore_GC] (site GAGGCCTCTTG) (LTG core: CT, RTG core: GC) | 0.285
AAACATGCTTGGGTTCTAACCTGTTGCCTAC [AAACATGCTAG_LTGcore_CT_RTGcore_GT] (site AAACATGCTAG) (LTG core: CT, RTG core: GT) | 1.05
GGACACCGATGGGTTCTAACCTGTTGCCTTC [GGACACCCTAG_LTGcore_GA_RTGcore_GA] (site GGACACCCTAG) (LTG core: GA, RTG core: GA) | 0.0178
GGGAGCCTATGGGTTCTAACCTGTTGCTGTA [GGGAGCCCTCA_LTGcore_TA_RTGcore_TA] (site GGGAGCCCTCA) (LTG core: TA, RTG core: TA) | 0.157
CGAGCCCCTTGGGTTCTAACCTGTTGCTGAC [CGAGCCCCTCA_LTGcore_CT_RTGcore_GT] (site CGAGCCCCTCA) (LTG core: CT, RTG core: GT) | 0.19
TCTACCCGATGGGTTCTAACCTGTTGCTGTC [TCTACCCCTCA_LTGcore_GA_RTGcore_GA] (site TCTACCCCTCA) (LTG core: GA, RTG core: GA) | 0.0498
TAAGAATGTTGGGTTCTAACCTGTTGCCTAG [TAAGAATCTAG_LTGcore_GT_RTGcore_CT] (site TAAGAATCTAG) (LTG core: GT, RTG core: CT) | 0.127
GAGGCCTCGTGGGTTCTAACCTGTTGCCACG [GAGGCCTCTTG_LTGcore_CG_RTGcore_CG] (site GAGGCCTCTTG) (LTG core: CG, RTG core: CG) | 0.169
AGGCGGGCTTGGGTTCTAACCTGTTGCGGTT [AGGCGGGCTCC_LTGcore_CT_RTGcore_AA] (site AGGCGGGCTCC) (LTG core: CT, RTG core: AA) | 0.0746
TAGAGGGCTTGGGTTCTAACCTGTTGCGGCT [TAGAGGGCTCC_LTGcore_CT_RTGcore_AG] (site TAGAGGGCTCC) (LTG core: CT, RTG core: AG) | 0.623
GTCGCCCCTTGGGTTCTAACCTGTTGCTAGT [GTCGCCCCTTA_LTGcore_CT_RTGcore_AC] (site GTCGCCCCTTA) (LTG core: CT, RTG core: AC) | 0.644
TCGCGACCTTGGGTTCTAACCTGTTGCCGCT [TCGCGACCTCG_LTGcore_CT_RTGcore_AG] (site TCGCGACCTCG) (LTG core: CT, RTG core: AG) | 0.0581

Sequence | recombinant barcode read abundance (log10)
AAACAGTGGTGGGTTCTAACCTGTTGCCTAG [AAACAGTCTAG_LTGcore_GG_RTGcore_CT] (site AAACAGTCTAG) (LTG core: GG, RTG core: CT) | 0.0371
ATGCTTTGGTGGGTTCTAACCTGTTGCCTAG [ATGCTTTCTAG_LTGcore_GG_RTGcore_CT] (site ATGCTTTCTAG) (LTG core: GG, RTG core: CT) | 0.179
ATGTCCCTATGGGTTCTAACCTGTTGCTCAG [ATGTCCCCTGA_LTGcore_TA_RTGcore_CT] (site ATGTCCCCTGA) (LTG core: TA, RTG core: CT) | 0.0463
AGGAGGTTGTGGGTTCTAACCTGTTGCCTAG [AGGAGGTCTAG_LTGcore_TG_RTGcore_CT] (site AGGAGGTCTAG) (LTG core: TG, RTG core: CT) | 0.42
AGGAGGTTGTGGGTTCTAACCTGTTGCCTCA [AGGAGGTCTAG_LTGcore_TG_RTGcore_TG] (site AGGAGGTCTAG) (LTG core: TG, RTG core: TG) | 0.0756
CGCGCCCGTTGGGTTCTAACCTGTTGCGGAG [CGCGCCCCTCC_LTGcore_GT_RTGcore_CT] (site CGCGCCCCTCC) (LTG core: GT, RTG core: CT) | 0.062
GGACACCACTGGGTTCTAACCTGTTGCCTAG [GGACACCCTAG_LTGcore_AC_RTGcore_CT] (site GGACACCCTAG) (LTG core: AC, RTG core: CT) | 0.0688
CATATTAAGTGGGTTCTAACCTGTTGCCTCT [CATATTACTAG_LTGcore_AG_RTGcore_AG] (site CATATTACTAG) (LTG core: AG, RTG core: AG) | 0.0293
GAGGCCTGCTGGGTTCTAACCTGTTGCCAGC [GAGGCCTCTTG_LTGcore_GC_RTGcore_GC] (site GAGGCCTCTTG) (LTG core: GC, RTG core: GC) | 0.275
GGGAGCCCCTGGGTTCTAACCTGTTGCTGAG [GGGAGCCCTCA_LTGcore_CC_RTGcore_CT] (site GGGAGCCCTCA) (LTG core: CC, RTG core: CT) | 1.11
TCGCGACAATGGGTTCTAACCTGTTGCCGTT [TCGCGACCTCG_LTGcore_AA_RTGcore_AA] (site TCGCGACCTCG) (LTG core: AA, RTG core: AA) | 0.176
ACGGGACCTTGGGTTCTAACCTGTTGCAGTC [ACGGGACCTCT_LTGcore_CT_RTGcore_GA] (site ACGGGACCTCT) (LTG core: CT, RTG core: GA) | 0.425
CGGTCCCCTTGGGTTCTAACCTGTTGCCATA [CGGTCCCCTTG_LTGcore_CT_RTGcore_TA] (site CGGTCCCCTTG) (LTG core: CT, RTG core: TA) | 0.222
TGTATTCTCTGGGTTCTAACCTGTTGCCTGA [TGTATTCCTAG_LTGcore_TC_RTGcore_TC] (site TGTATTCCTAG) (LTG core: TC, RTG core: TC) | 0.141
AAACAGTCTTGGGTTCTAACCTGTTGCCTCC [AAACAGTCTAG_LTGcore_CT_RTGcore_GG] (site AAACAGTCTAG) (LTG core: CT, RTG core: GG) | 1.4
GGTGCCCCTTGGGTTCTAACCTGTTGCCGAA [GGTGCCCCTCG_LTGcore_CT_RTGcore_TT] (site GGTGCCCCTCG) (LTG core: CT, RTG core: TT) | 0.481
TTATAAAGGTGGGTTCTAACCTGTTGCCTAG [TTATAAACTAG_LTGcore_GG_RTGcore_CT] (site TTATAAACTAG) (LTG core: GG, RTG core: CT) | 0.0816
TAGAGGGCCTGGGTTCTAACCTGTTGCGGGG [TAGAGGGCTCC_LTGcore_CC_RTGcore_CC] (site TAGAGGGCTCC) (LTG core: CC, RTG core: CC) | 0.132
TCGCGACCTTGGGTTCTAACCTGTTGCCGGT [TCGCGACCTCG_LTGcore_CT_RTGcore_AC] (site TCGCGACCTCG) (LTG core: CT, RTG core: AC) | 0.129
AGGCCTCGTTGGGTTCTAACCTGTTGCCTAC [AGGCCTCCTAG_LTGcore_GT_RTGcore_GT] (site AGGCCTCCTAG) (LTG core: GT, RTG core: GT) | 0.0637
TGATACCACTGGGTTCTAACCTGTTGCGTAG [TGATACCCTAC_LTGcore_AC_RTGcore_CT] (site TGATACCCTAC) (LTG core: AC, RTG core: CT) | 0.135
ATGCTTTCATGGGTTCTAACCTGTTGCCTTG [ATGCTTTCTAG_LTGcore_CA_RTGcore_CA] (site ATGCTTTCTAG) (LTG core: CA, RTG core: CA) | 0.1
